Test results taken from patent publication US10168342B2, “Lipid probes and uses thereof” (THE SCRIPPS RESEARCH INSTITUTE, priority 2015, dated 2019).

Assays:
[1] = test system: lipids of Neuro2a cells; experiment: Untargeted metabolomics (lipidomic profiling) of Neuro2a cells; assay type: cell-based, mouse; details: 10 μM, 6 h
Description: Discovery metabolite profiling was performed as described by Saghatelian et al., “Assignment of endogenous substrates to enzymes by global metabolite profiling,” Biochemistry 43:14332-14339 (2004) with several modifications. […] The media from the cells was removed and cells were washed with DPBS (2×5.0 mL) before adding freshly prepared media solutions containing vehicle or compound. After incubating for 6 h at 37° C. and subsequent removal of the media, the cells were harvested by scrapping in cold DPBS (3 mL) and pelleted by centrifugation in glass vials. The pellets were washed once with cold DPBS (3 mL) and then cold […] (2:1) (3 mL) was added. After vortexing, the vials were centrifuged (3,000×g, 10 min, 4° C.) and the bottom (organic) layer was transferred to a new glass vial and concentrated under a stream of N2. Samples were stored at −80° C. until the day of analysis when they were reconstituted in Mobile Phase A (100 μL, see below).
Lipid extracts were analyzed by LC/MS in both positive and negative modes using an Agilent 6520 QTOF instrument and LC separation performed on a Kinetex reversed phase C18 column (50×4.6 mm, 2.6 μm particle size, 100Å). Mobile phase A was composed of 5:1:4 isopropanol:methanol:water and Mobile phase B was composed of 99:1 isopropanol:water. Both mobile phases also contained 0.1% AcOH and NH4OAc (5 mM) to facilitate ionization and LC separation. […] To minimize carryover, LC solvents were cycled between 100% Mobile Phase A and 100% Mobile Phase B over 5 min after each run. Data analysis was performed using XCMS (Smith et al., 2006) software which is freely available online (http://xcmsonline.scripps.edu).

[2] = molecular target: A-DA lipid probe targets in A549 cells (Homo sapiens, UniProt P48449); experiment: In situ competitive SILAC profiling with A-DA probe in (PMA-stimulated) A549 cells; details: A549 cells, A-DA 5 μM, drug 5 μM; only two off-targets (TMEM97 and EBP)
[3] = molecular target: T1, A-DA lipid probe targets in A549 cells (Homo sapiens, UniProt Q9UH99); experiment: as above; details: protein SUN2 (Q9UH99), A549 cells
T1 sequence (Q9UH99 1-717): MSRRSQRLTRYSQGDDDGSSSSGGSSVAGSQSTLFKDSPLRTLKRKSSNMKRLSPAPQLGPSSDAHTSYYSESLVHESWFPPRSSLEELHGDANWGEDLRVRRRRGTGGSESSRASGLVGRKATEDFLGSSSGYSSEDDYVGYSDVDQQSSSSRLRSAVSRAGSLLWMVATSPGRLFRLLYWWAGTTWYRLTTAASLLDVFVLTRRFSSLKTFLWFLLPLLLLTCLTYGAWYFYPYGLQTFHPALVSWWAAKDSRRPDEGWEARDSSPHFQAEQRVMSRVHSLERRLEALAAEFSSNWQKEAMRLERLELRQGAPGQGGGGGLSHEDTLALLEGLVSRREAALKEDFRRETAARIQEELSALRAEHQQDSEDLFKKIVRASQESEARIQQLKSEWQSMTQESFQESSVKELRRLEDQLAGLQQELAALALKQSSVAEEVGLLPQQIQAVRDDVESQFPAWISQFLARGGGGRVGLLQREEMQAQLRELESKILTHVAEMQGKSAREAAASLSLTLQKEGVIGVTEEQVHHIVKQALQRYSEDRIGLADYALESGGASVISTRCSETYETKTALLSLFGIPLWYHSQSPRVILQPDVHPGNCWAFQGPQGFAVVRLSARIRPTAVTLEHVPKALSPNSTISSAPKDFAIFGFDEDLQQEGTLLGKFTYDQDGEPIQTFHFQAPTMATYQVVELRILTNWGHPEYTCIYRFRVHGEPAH

[4] = Neg, m/z 716.52, RT 32.28 min, versus DMSO
[5] = Neg, m/z 721.50, RT 30.94 min, versus DMSO
[6] = Neg, m/z 786.53, RT 31.97 min, versus DMSO
[7] = Neg, m/z 788.54, RT 34.16 min, versus DMSO
[8] = Neg, m/z 808.51, RT 30.14 min, versus DMSO
[9] = Pos, m/z 788.61, RT 35.81 min, versus DMSO

A-DA lipid probe targets in A549 cells (Homo sapiens, UniProt P48449), sequence (P48449 whole entry): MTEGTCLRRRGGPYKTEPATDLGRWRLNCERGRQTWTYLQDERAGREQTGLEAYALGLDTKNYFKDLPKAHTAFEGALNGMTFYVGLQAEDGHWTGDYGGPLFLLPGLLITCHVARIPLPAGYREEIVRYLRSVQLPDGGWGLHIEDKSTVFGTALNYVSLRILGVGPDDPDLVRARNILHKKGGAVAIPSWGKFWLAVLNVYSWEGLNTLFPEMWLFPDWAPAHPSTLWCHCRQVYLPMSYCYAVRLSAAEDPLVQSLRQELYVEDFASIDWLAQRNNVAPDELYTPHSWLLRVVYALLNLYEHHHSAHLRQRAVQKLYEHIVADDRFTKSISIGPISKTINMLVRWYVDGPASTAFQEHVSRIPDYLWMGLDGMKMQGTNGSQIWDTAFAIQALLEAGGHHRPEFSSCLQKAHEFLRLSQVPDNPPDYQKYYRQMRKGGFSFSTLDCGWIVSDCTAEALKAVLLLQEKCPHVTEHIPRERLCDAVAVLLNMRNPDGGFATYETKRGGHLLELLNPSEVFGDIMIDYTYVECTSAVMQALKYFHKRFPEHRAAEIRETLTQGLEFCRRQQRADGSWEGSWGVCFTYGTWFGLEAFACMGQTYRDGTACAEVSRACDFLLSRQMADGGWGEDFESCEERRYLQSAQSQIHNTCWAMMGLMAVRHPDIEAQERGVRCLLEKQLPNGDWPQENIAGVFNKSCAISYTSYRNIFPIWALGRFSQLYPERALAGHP

In the case of `CN1CCN(C(=O)c2[nH]c3ccc([N+](=O)[O-])cc3c2-c2ccccc2)CC1` [MJN228, (4-Methylpiperazin-1-yl)(5-nitro-3-phenyl-1H-indol-2-yl)methanone], the “Fold Change, FFA 16:0” value ([1]; Neg, m/z 255.23, RT 14.24 min, versus DMSO) is reported as 1.17 fold, the “Fold Change, FFA 18:1” value ([1]; Neg, m/z 281.25, RT 15.75 min, versus DMSO) is reported as 1.23 fold and the “Fold Change, FFA 18:0” value ([1]; Neg, m/z 283.26, RT 20.89 min, versus DMSO) is reported as 1.22 fold. The “Fold Change, FFA 20:4” value ([1]; Neg, m/z 303.23, RT 12.39 min, versus DMSO) was 1.17 fold, the “Fold Change, NAT 24:1” value ([1]; Neg, m/z 444.31, RT 9.31 min, versus DMSO) was 2.51 fold and the “Fold Change, NAT 24:0” value ([1]; Neg, m/z 446.33, RT 13.76 min, versus DMSO) was 2.29 fold. The “Fold Change, LPE 16:0” value ([1]; Neg, m/z 452.28, RT 5.02 min, versus DMSO) was 1.25 fold, the “Fold Change, NAT 26:0” value ([1]; Neg, m/z 474.36, RT […], versus DMSO) was 2.75 fold and the “Fold Change, LPE 18:1” value ([1]; Neg, m/z 478.29, RT 5.66 min, versus DMSO) was 1.50 fold. For the same molecule, the “Fold Change, LPE 18:0” value ([1]; Neg, m/z 480.31, RT 7.96 min, versus DMSO) was 1.43 fold, the “Fold Change, feature m/z 596.39” value ([1]; Neg, m/z 596.39, RT […], versus DMSO) was 2.02 fold and the “Fold Change, feature m/z 622.41” value ([1]; Neg, m/z 622.41, RT 12.66 min, versus DMSO) was 2.06 fold. The “Fold Change, PA 34:1” value ([1]; Neg, m/z 673.48, RT 33.41 min, versus DMSO) was 1.01 fold, the “Change (direction), PE 34:1” value [1, 4] was “DOWN” and the “Fold Change, PE 34:1” value [1, 4] was 1.35 fold. For the same molecule, the “Change (direction), PG 32:0” value [1, 5] was “DOWN”, the “Fold Change, PG 32:0” value [1, 5] was 1.26 fold and the “Fold Change, PE 36:4” value ([1]; Neg, m/z 738.51, RT 33.92 min, versus DMSO) was 1.46 fold. The “Fold Change, PG 34:1” value ([1]; Neg, m/z 747.52, RT 32.95 min, versus DMSO) was 1.22 fold, the “Fold Change, PG 34:0” value ([1]; Neg, m/z 749.53, RT 34.04 min, versus DMSO) was 1.24 fold and the “Fold Change, PS 34:1” value ([1]; Neg, m/z 760.51, RT 31.80 min, versus DMSO) was 1.07 fold. For the same molecule, the “Fold Change, PE 38:5” value ([1]; Neg, m/z 764.52, RT 35.18 min, versus DMSO) was 1.02 fold, the “Fold Change, PE 38:4” value ([1]; Neg, m/z 766.54, RT 36.76 min, versus DMSO) was 1.01 fold and the “Fold Change, PG 36:1” value ([1]; Neg, m/z 775.55, RT 34.70 min, versus DMSO) was 1.02 fold. For the same molecule, the “Change (direction), PS 36:2” value [1, 6] was “DOWN”, the “Fold Change, PS 36:2” value [1, 6] was 1.11 fold and the “Change (direction), PS 36:1” value [1, 7] was “DOWN”. The “Fold Change, PS 36:1” value [1, 7] was 1.03 fold, the “Change (direction), PS 38:5” value [1, 8] was “DOWN” and the “Fold Change, PS 38:5” value [1, 8] was 1.05 fold. For the same molecule, the “elevation of metabolites (NAEs and NATs) versus DMSO” value ([1]; Neuro2a cells, P<0.0001) was ≥ 2 fold, the “Fold Change, NAE 18:1” value ([1]; Pos, m/z 326.30, RT 8.36 min, versus DMSO) was 2.91 fold and the “Fold Change, NAE 18:0” value ([1]; Pos, m/z 328.32, RT 12.20 min, versus DMSO) was 2.00 fold. For the same molecule, the “Fold Change, MAG 16:0” value ([1]; Pos, m/z 331.28, RT 8.51 min, versus DMSO) was 1.67 fold, the “Fold Change, MAG 18:1” value ([1]; Pos, m/z 358.30, RT 9.68 min, versus DMSO) was 1.37 fold and the “Fold Change, feature m/z 371.10” value ([1]; Pos, m/z 371.10, RT 13.51 min, versus DMSO) was 2.00 fold. The “Fold Change, LPC 18:1” value ([1]; Pos, m/z 522.35, RT 5.29 min, versus DMSO) was 1.24 fold, the “Fold Change, LPC 18:0” value ([1]; Pos, m/z 524.37, RT 7.49 min, versus DMSO) was 1.48 fold and the “Fold Change, LPC 20:4” value ([1]; Pos, m/z 544.34, RT 5.29 min, versus DMSO) was 1.69 fold. For the same molecule, the “Fold Change, feature m/z 669.22” value ([1]; Pos, m/z 669.22, RT 13.52 min, versus DMSO) was 2.15 fold, the “Fold Change, feature m/z 704.21” value ([1]; Pos, m/z 704.21, RT 19.42 min, versus DMSO) was 2.45 fold and the “Fold Change, feature m/z 705.21” value ([1]; Pos, m/z 705.21, RT 19.44 min, versus DMSO) was 2.63 fold. The “Fold Change, feature m/z 743.24” value ([1]; Pos, m/z 743.24, RT 19.42 min, versus DMSO) was 2.56 fold, the “Fold Change, feature m/z 744.24” value ([1]; Pos, m/z 744.24, RT 19.44 min, versus DMSO) was 2.88 fold and the “Fold Change, feature m/z 745.24” value ([1]; Pos, m/z 745.24, RT 19.44 min, versus DMSO) was 2.81 fold. For the same molecule, the “Fold Change, PC 34:0” value ([1]; Pos, m/z 762.60, RT 36.86 min, versus DMSO) was 1.00 fold, the “Fold Change, feature m/z 776.23” value ([1]; Pos, m/z 776.23, RT 25.46 min, versus DMSO) was 2.50 fold and the “Fold Change, feature m/z 777.23” value ([1]; Pos, m/z 777.23, RT 25.48 min, versus DMSO) was 2.52 fold. The “Fold Change, feature m/z 778.23” value ([1]; Pos, m/z 778.23, RT 25.47 min, versus DMSO) was 2.41 fold, the “Fold Change, feature m/z 779.23” value ([1]; Pos, m/z 779.23, RT 25.47 min, versus DMSO) was 2.59 fold and the “Change (direction), PC 36:1” value [1, 9] was “DOWN”. The “Fold Change, PC 36:1” value [1, 9] was 1.04 fold, the “Fold Change, feature m/z 817.26” value ([1]; Pos, m/z 817.26, RT 25.47 min, versus DMSO) was 2.35 fold and the “Fold Change, feature m/z 818.26” value ([1]; Pos, m/z 818.26, RT 25.47 min, versus DMSO) was 2.51 fold. For the same molecule, the “Fold Change, feature m/z 819.26” value ([1]; Pos, m/z 819.26, RT 25.46 min, versus DMSO) was 2.85 fold, the “Fold Change, feature m/z 820.26” value ([1]; Pos, m/z 820.26, RT 25.47 min, versus DMSO) was 2.79 fold and the “Fold Change, feature m/z 850.25” value ([1]; Pos, m/z 850.25, RT 30.92 min, versus DMSO) was 2.42 fold. For the same molecule, the “Fold Change, feature m/z 851.25” value ([1]; Pos, m/z 851.25, RT 30.92 min, versus DMSO) was 2.41 fold, the “Fold Change, feature m/z 852.25” value ([1]; Pos, m/z 852.25, RT 30.92 min, versus DMSO) was 2.46 fold and the “Fold Change, feature m/z 853.25” value ([1]; Pos, m/z 853.25, RT 30.92 min, versus DMSO) was 2.61 fold. For the same molecule, the “Fold Change, feature m/z 924.27” value ([1]; Pos, m/z 924.27, RT 33.83 min, versus DMSO) was 2.14 fold, the “Fold Change, feature m/z 925.27” value ([1]; Pos, m/z 925.27, RT 33.83 min, versus DMSO) was 2.19 fold and the “Fold Change, feature m/z 926.27” value ([1]; Pos, m/z 926.27, RT 33.84 min, versus DMSO) was 2.27 fold. For the same molecule, the “Fold Change, feature m/z 927.27” value ([1]; Pos, m/z 927.27, RT 33.83 min, versus DMSO) was 2.19 fold.

In the case of `C=CCN(C)CCCCCCOc1ccc(C(=O)c2ccc(Br)cc2)c(F)c1` [Ro 48-8071, reference compound], the “competition of probe labeling of LSS” value [2] is reported as “fully competed”, the “SILAC ratio, A-DA competition” value ([3]; competitor 5.0 μM) is reported as 1.3 and the “SILAC ratio, A-DA competition” value ([3]; competitor 50 μM) is reported as 1.3.
